Source: patent publication US20240358015A1, “HERBICIDAL COMPOSITIONS” (Agrematch Ltd., priority 2021, published 2024)

What was measured:
S. viridis = test: Growth-chamber post-emergence assay on various weed species (Example 7); format: in vivo, Setaria viridis; details: 0.05% Break-Thru
Description: (§1) Herbicidal activity of Compound 1 was determined by post-emergence application on various weed species. 8-14 day old plants (weeds) were grown at 16 hours/8 hours day/night cycles at 30° C./25° C., respectively. Leaf stage was typically 2-6.
(§2) In each treatment, 3 pots (either 7×7 or 8×12 cm), containing about 3-6 plants each, were sprayed using a VL-SET Paasche Airbrush with a 1-1.5 ml-solution containing 0.5-1.5 mg/ml of the tested compound, which is equivalent to about 500-1500 g/ha.
(§3) Damage assessment: Herbicidal activity was assessed and scored 3-4 days after application by visual inspection of the plants in comparison to plants treated with the formulation alone (with no active ingredient) as control. Activity score is in the range of 0 to 100, where 0 represents no herbicidal activity like control plants and 100 represents the maximal herbicidal activity (i.e., total death of the plant).

A. retroflexus = test: as above; format: in vivo; details: 500 g/ha; 0.8% MIPA, 0.25% Genapol, 1% AGNIQUE, 0.05% Ca-LAS, 0.02% BSU, 0.05% Break-Thru
Description: as §1, §2, §3

T. vulgare = test: as above; format: in vivo; details: 500 g/ha; 0.8% MIPA, 0.25% Genapol, 1% AGNIQUE, 0.05% Ca-LAS, 0.02% BSU, 0.05% Break-Thru
Description: as §1, §2, §3

D. ferox = test: as above; format: in vivo; details: 1500 g/ha; 0.8% MIPA, 0.25% Genapol, 2% HASTEN, 0.05% Break-Thru
Description: as §1, §2, §3

[1] = system: Resistant A. rudis (target-site resistant to HRAC class 5); test: Growth-chamber assay with resistant weeds (Example 9); format: in vivo, Amaranthus rudis; details: 2,000 g/ha, 4-5 days after application, scale 0-100
Description: Herbicidal activity of Compound 1 was determined by post-emergence application in both Growth-chamber and Net-house conditions. Growing conditions were as described in Examples 6 and 8 above.
The assay was performed on 9-11 day old plants (weeds) of Amaranthus rudis that were either target-site resistant or sensitive to HRAC class 5. In each treatment, between 1 to 3 pots (8×12 cm), containing about 6 Amaranthus Rudis plants, were sprayed using a VL-SET Paasche Airbrush with a 1 ml-solution.
as §3, with “4-5” for “3-4”

Setaria viridis = test: Growth-chamber post-emergence herbicidal assay (Example 2); format: in vivo; details: 1000 g/ha, 3-4 days after application
Description: (§4) Herbicidal activity was determined by post-emergence application on 8-day old plants (weeds) of the Amaranthus palmeri and Setaria viridis species that were grown at 16 hours/8 hours day/night cycles at 30° C./25° C., respectively. Leaf stage was typically 4-6 for A. palmeri and 3-4 for S. viridis.
(§5) In each treatment, 2-3 pots, each containing about 5 plants each (for Setaria viridis), and one 9-pack, containing about 9 plants (for Amaranthus palmeri), were sprayed using a VL-SET Paasche Airbrush with 0.3-1.5 ml solution containing 0.125-2 mg/ml of a tested compound, which is equivalent to about 125-2000 g/ha.
as §3
Herbicidal activity scores 3-4 days after application are presented Table 3 below.

A. palmeri = test: Growth-chamber post-emergence assay on various weed species (Example 7); format: in vivo, Amaranthus palmeri; details: 0.05% Break-Thru, 3-4 days after application
Description: as §1, §2, §3

Amaranthus palmeri = test: Growth-chamber post-emergence herbicidal assay (Example 2); format: in vivo
Description: as §4, §5, §3
Formulation design: Compounds were tested on A. Palmeri in various formulations, and in varying concentrations for each of the tested formulations, in order to determine optimal conditions for its application and performance. Activity scores were determined as described hereinabove. Solubility scores were determined by visual inspection on a scale of 1-10, with 10 representing complete solubilization and 1 represents nullified solubilization.
Each of the obtained solution was then mixed with different adjuvants and applied at a rate equivalent to 500 g/ha for A. palmeri and 1000 g/ha for S. viridis. Herbicidal activity scores 3-4 days after application are presented Table 3 below.

X. strumarium = test: Growth-chamber post-emergence assay on various weed species (Example 7); format: in vivo, Xanthium strumarium; details: 1500 g/ha; 0.8% MIPA, 0.25% Genapol, 2% HASTEN, 0.05% Break-Thru
Description: as §1, §2, §3

S. nigrum = test: as above; format: in vivo, Solanum nigrum; details: 0.05% Break-Thru
Description: as §1, §2, §3

B. cinerea = test: PDA plate fungicidal assay (Example 4); format: cell-based, Botrytis cinerea; details: average of two plates
Description: Compound 1 was dissolved in 0.05 M Tris buffer pH=8 to a concentration of 4 mg/ml, and then diluted with a sterile PDA solution to final concentrations of 40 and 400 μg/ml. 10 ml of each solution were poured to a 100 mm petri dish and left to cool down. A 0.5 cm diameter agar disc inoculated with 3-day old B. cinerea hypha was placed upside down in the center of each PDA plate. Each treatment contained two repeats (two plates). Plates were incubated at 21° C. for 4 days. Fungicidal activity was scored by measuring the radial growth area of the hypha. Results were recorded 2-4 days after inoculation (DAI). % growth inhibition was calculated relative to control treatment without Compound 1.

[2] = 750 g/ha, 0.2% MIPA, 2% TWEEN20, 1% AGNIQUE, 0.05% Ca-LAS, 0.02% BSU
[3] = 1500 g/ha, 0.8% MIPA, 0.25% Genapol, 2% HASTEN

O=C(O)c1cc(O)c2c(c1)C(=O)c1cccc(O)c1C2=O [Compound 1, Rhein]
Herbicidal activity score (S. viridis; 500 g/ha, 0.8% MIPA, 0.25% Genapol, 1% AGNIQUE, 0.05% Ca-LAS, 0.02% BSU): 70 | Herbicidal activity score (S. viridis; [2]): 70 | Herbicidal activity score (S. viridis; [3]): 100 | Herbicidal activity score (A. retroflexus): 85 | Herbicidal activity score (T. vulgare): 10 | Herbicidal activity score (D. ferox): 95 | Herbicidal activity score [1]: 100 | Herbicidal activity score (Setaria viridis; 1 mg/ml in 0.015% Ammonium hydroxide, 0.25% Adsee): 10 | Herbicidal activity score (Setaria viridis; 1 mg/ml in 0.015% Ammonium hydroxide, 0.25% Genapol X-080): 70 | Herbicidal activity score (Setaria viridis; 1 mg/ml in 0.015% Ammonium hydroxide, 0.7% Sodium Lauryl Ether sulfate): 100 | Herbicidal activity score (Setaria viridis; 1 mg/ml in 0.015% Ammonium hydroxide, 1% AGNIQUE, 0.05% Ca-LAS, 0.02% BSU): 70 | Herbicidal activity score (Setaria viridis; 1 mg/ml in 0.015% Ammonium hydroxide, 2% Tween 20, scale 0-100): 80 | Herbicidal activity score (Setaria viridis; 1 mg/ml in 0.037% MIPA, 0.25% Adsee): 40 | Herbicidal activity score (Setaria viridis; 1 mg/ml in 0.037% MIPA, 0.25% Genapol X-080): 100 | Herbicidal activity score (Setaria viridis; 1 mg/ml in 0.037% MIPA, 0.7% Sodium Lauryl Ether sulfate): 100 | Herbicidal activity score (Setaria viridis; 1 mg/ml in 0.037% MIPA, 1% AGNIQUE, 0.05% Ca-LAS, 0.02% BSU): 70 | Herbicidal activity score (Setaria viridis; 1 mg/ml in 0.037% MIPA, 2% Tween 20): 100 | Activity Score (Setaria viridis; 2% TWEEN 20, 5.2 mM Ammonium hydroxide, 0.05% Break-Thru, scale 0-100): 90 | Herbicidal activity score (A. palmeri; 500 g/ha, 0.8% MIPA, 0.25% Genapol, 1% AGNIQUE, 0.05% Ca-LAS, 0.02% BSU, scale 0-100): 100 | Herbicidal activity score (A. palmeri; [2]): 100 | Herbicidal activity score (A. palmeri; [3]): 100 | Herbicidal activity score (Amaranthus palmeri; 500 g/ha, 0.5 mg/ml in 0.007% Ammonium hydroxide, 0.25% Adsee, 3-4 days after application): 30 | Herbicidal activity score (Amaranthus palmeri; 500 g/ha, 0.5 mg/ml in 0.007% Ammonium hydroxide, 0.25% Genapol X-080, 3-4 days after application): 50 | Herbicidal activity score (Amaranthus palmeri; 500 g/ha, 0.5 mg/ml in 0.007% Ammonium hydroxide, 0.7% Sodium Lauryl Ether sulfate, 3-4 days after application): 85 | Herbicidal activity score (Amaranthus palmeri; 500 g/ha, 0.5 mg/ml in 0.007% Ammonium hydroxide, 1% AGNIQUE, 0.05% Ca-LAS, 0.02% BSU, 3-4 days after application): 70 | Herbicidal activity score (Amaranthus palmeri; 500 g/ha, 0.5 mg/ml in 0.007% Ammonium hydroxide, 2% Tween 20, 3-4 days after application, scale 0-100): 60 | Herbicidal activity score (Amaranthus palmeri; 500 g/ha, 0.5 mg/ml in 0.019% MIPA, 0.25% Adsee, 3-4 days after application): 80 | Herbicidal activity score (Amaranthus palmeri; 500 g/ha, 0.5 mg/ml in 0.019% MIPA, 0.25% Genapol X-080, 3-4 days after application): 70 | Herbicidal activity score (Amaranthus palmeri; 500 g/ha, 0.5 mg/ml in 0.019% MIPA, 0.7% Sodium Lauryl Ether sulfate, 3-4 days after application): 90 | Herbicidal activity score (Amaranthus palmeri; 500 g/ha, 0.5 mg/ml in 0.019% MIPA, 1% AGNIQUE, 0.05% Ca-LAS, 0.02% BSU, 3-4 days after application): 80 | Herbicidal activity score (Amaranthus palmeri; 500 g/ha, 0.5 mg/ml in 0.019% MIPA, 2% Tween 20, 3-4 days after application): 95 | Activity Score (Amaranthus palmeri; 500 g/ha, 2% TWEEN 20, 5 mM MIPA, 1% AGNIQUE, 0.05% Ca-LAS, 0.02% BSU, 0.05% Break-Thru): 95 | Activity Score (Amaranthus palmeri; 1000 g/ha, 1% TWEEN 80, 0.05M Tris buffer pH 8, 0.05% Break-Thru, 3-4 days after application, scale 0-100): 100 | Activity Score (Amaranthus palmeri; 1500 g/ha, 4% TWEEN 20, 0.05M Tris buffer pH 8, 0.05% Break-Thru): 95 | Activity Score (Amaranthus palmeri; 2000 g/ha, 1% TWEEN 80, 0.05M Tris buffer pH 8, 0.05% Break-Thru): 95 | Herbicidal activity score (X. strumarium): 90 | Herbicidal activity score (S. nigrum; [2]): 95 | Herbicidal activity score (S. nigrum; [3]): 100 | % growth inhibition (radial growth area of the hypha, relative to control) (B. cinerea; 40 μg/ml in PDA, 2 DAI): 61% | % growth inhibition (radial growth area of the hypha, relative to control) (B. cinerea; 40 μg/ml in PDA, 3 DAI): 82% | % growth inhibition (radial growth area of the hypha, relative to control) (B. cinerea; 40 μg/ml in PDA, 4 DAI): 86% | % growth inhibition (radial growth area of the hypha, relative to control) (B. cinerea; 400 μg/ml in PDA, 2 DAI): 82% | % growth inhibition (radial growth area of the hypha, relative to control) (B. cinerea; 400 μg/ml in PDA, 3 DAI): 88% | % growth inhibition (radial growth area of the hypha, relative to control) (B. cinerea; 400 μg/ml in PDA, 4 DAI): 83%
